Experimental data reported in US20260262643A1, “HERBICIDAL BENZOXAZINES” (FMC CORPORATION, priority 2022, published 2026).

Assays:
blackgrass [1] = assay: Test C postemergence; type: in vivo, Alopecurus myosuroides; details: 10 days, 0 to 100 scale (0 no effect, 100 complete control)
In short: (§1)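 Pre: seeds in loam/sand, directed soil spray. Post: 1–2 leaf plants, 2–10 cm. Cmpd in non-phytotoxic solvent + surfactant. Greenhouse 10 d; visual rating vs untreated, 0 = none, 100 = complete control.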

ragweed [2] = assay: Test C postemergence; type: in vivo, Ambrosia artemisiifolia; details: 10 days, 0 to 100 scale (0 no effect, 100 complete control)
In short: as §1

blackgrass [3] = assay: Test C preemergence; type: in vivo, Alopecurus myosuroides
In short: as §1

soybean [4] = assay: Test C postemergence; type: in vivo, Glycine max; details: 10 days, 0 to 100 scale (0 no effect, 100 complete control)
In short: as §1

pigweed, palmer [5] = assay: Test C postemergence; type: in vivo, Amaranthus palmeri; details: 10 days, 0 to 100 scale (0 no effect, 100 complete control)
In short: as §1

corn [6] = assay: Test C postemergence; type: in vivo, Zea mays; details: 10 days, 0 to 100 scale (0 no effect, 100 complete control)
In short: as §1

rice = assay: Test D flooded paddy test; type: in vivo, Oryza sativa; details: 250 g ai/ha, applied to paddy water, visual rating after 13 to 14 days, scale 0 to 100 (0 no effect, 100 complete control)
In short: (§2)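 2-leaf plants; flood 3 cm above soil; compound dosed into paddy water; greenhouse 13–14 d; visual rating vs controls, 0–100 (100 = complete control); dash = not tested.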

wheat [7] = assay: Test C preemergence; type: in vivo, Triticum aestivum
In short: as §1

ryegrass, Italian [8] = assay: Test C preemergence; type: in vivo, Lolium multiflorum
In short: as §1

kochia [9] = assay: Test C preemergence; type: in vivo, Bassia scoparia
In short: as §1

galium = assay: Test C postemergence; type: in vivo, Galium aparine; details: 10 days, 0 to 100 scale (0 no effect, 100 complete control)
In short: as §1

corn [10] = assay: Test C preemergence; type: in vivo, Zea mays
In short: as §1

barnyardgrass [11] = assay: Test D flooded paddy test; type: in vivo, Echinochloa crus-galli; details: 250 g ai/ha, applied to paddy water, visual rating after 13 to 14 days, scale 0 to 100 (0 no effect, 100 complete control)
In short: as §2

pigweed, palmer [12] = assay: Test C preemergence; type: in vivo, Amaranthus palmeri
In short: as §1

kochia [13] = assay: Test C postemergence; type: in vivo, Bassia scoparia; details: 10 days, 0 to 100 scale (0 no effect, 100 complete control)
In short: as §1

horseweed = assay: Test C postemergence; type: in vivo, Erigeron canadensis; details: 10 days, 0 to 100 scale (0 no effect, 100 complete control)
In short: as §1

oat, wild [14] = assay: Test C preemergence; type: in vivo, Avena fatua
In short: as §1

soybean [15] = assay: Test C preemergence; type: in vivo, Glycine max
In short: as §1

barnyardgrass [16] = assay: Test C postemergence; type: in vivo, Echinochloa crusgalli; details: 10 days, 0 to 100 scale (0 no effect, 100 complete control)
In short: as §1

sedge, umbrella = assay: Test D flooded paddy test; type: in vivo, Cyperus difformis; details: 250 g ai/ha, applied to paddy water, visual rating after 13 to 14 days, scale 0 to 100 (0 no effect, 100 complete control)
In short: as §2

ragweed [17] = assay: Test C preemergence; type: in vivo, Ambrosia artemisiifolia
In short: as §1

wheat [18] = assay: Test C postemergence; type: in vivo, Triticum aestivum; details: 10 days, 0 to 100 scale (0 no effect, 100 complete control)
In short: as §1

ducksalad = assay: Test D flooded paddy test; type: in vivo, Heteranthera limosa; details: 250 g ai/ha, applied to paddy water, visual rating after 13 to 14 days, scale 0 to 100 (0 no effect, 100 complete control)
In short: as §2

oat, wild [19] = assay: Test C postemergence; type: in vivo, Avena fatua; details: 10 days, 0 to 100 scale (0 no effect, 100 complete control)
In short: as §1

barnyardgrass [20] = assay: Test C preemergence; type: in vivo, Echinochloa crusgalli
In short: as §1

green foxtail [21] = assay: Test C postemergence; type: in vivo, Setaria viridis; details: 10 days, 0 to 100 scale (0 no effect, 100 complete control)
In short: as §1

ryegrass, Italian [22] = assay: Test C postemergence; type: in vivo, Lolium multiflorum; details: 10 days, 0 to 100 scale (0 no effect, 100 complete control)
In short: as §1

green foxtail [23] = assay: Test C preemergence; type: in vivo, Setaria viridis
In short: as §1

[24] = 500 g ai/ha, preemergence, 0 to 100 scale (0 no effect, 100 complete control)
[25] = Preemergence, 125 g ai/ha, 0 to 100 scale, 0 no effect, 100 complete control

`COCc1ncn(-c2ccc(C)c(C(=O)N3C[C@H](C)Oc4c(Cl)cccc43)c2)n1` [Compound 357] was tested, and the “Plant response rating, Blackgrass” value (blackgrass [1]; 500 g ai/ha, postemergence) was 100, the “Plant response rating, Blackgrass” value (blackgrass [1]; Postemergence, 125 g ai/ha) was 90 and the “Plant response rating, Ragweed” value (ragweed [2]; 500 g ai/ha, postemergence) was 60. The “Plant response rating, Ragweed” value (ragweed [2]; Postemergence, 125 g ai/ha) was 20, the “Blackgrass plant response rating” value (blackgrass [3]; [24]) was 100 and the “Plant response rating, Blackgrass” value (blackgrass [3]; [25]) was 80. For the same compound, the “Plant response rating, Soybean” value (soybean [4]; 500 g ai/ha, postemergence) was 100, the “Plant response rating, Soybean” value (soybean [4]; Postemergence, 125 g ai/ha) was 100 and the “Plant response rating, Pigweed, Palmer” value (pigweed, palmer [5]; 500 g ai/ha, postemergence) was 100. The “Plant response rating, Pigweed, Palmer” value (pigweed, palmer [5]; Postemergence, 125 g ai/ha) was 50, the “Plant response rating, Corn” value (corn [6]; 500 g ai/ha, postemergence) was 80 and the “Plant response rating, Corn” value (corn [6]; Postemergence, 125 g ai/ha) was 40. The “Plant response rating, Rice (Flood)” value (rice) was 0, the “Wheat plant response rating” value (wheat [7]; [24]) was 70 and the “Plant response rating, Wheat” value (wheat [7]; [25]) was 0. For the same compound, the “Ryegrass, Italian plant response rating” value (ryegrass, Italian [8]; [24]) was 100, the “Plant response rating, Ryegrass, Italian” value (ryegrass, Italian [8]; [25]) was 100 and the “Kochia plant response rating” value (kochia [9]; [24]) was 90. For the same compound, the “Plant response rating, Kochia” value (kochia [9]; [25]) was 50, the “Plant response rating, Galium” value (galium; 500 g ai/ha, postemergence) was 100 and the “Plant response rating, Galium” value (galium; Postemergence, 125 g ai/ha) was 100. The “Corn plant response rating” value (corn [10]; [24]) was 20, the “Plant response rating, Corn” value (corn [10]; [25]) was 10 and the “Plant response rating, Barnyardgrass (Flood)” value (barnyardgrass [11]) was 10. For the same compound, the “Pigweed, Palmer plant response rating” value (pigweed, palmer [12]; [24]) was 100, the “Plant response rating, Pigweed, Palmer” value (pigweed, palmer [12]; [25]) was 90 and the “Plant response rating, Kochia” value (kochia [13]; 500 g ai/ha, postemergence) was 70. For the same compound, the “Plant response rating, Kochia” value (kochia [13]; Postemergence, 125 g ai/ha) was 50, the “Plant response rating, Horseweed” value (horseweed; 500 g ai/ha, postemergence) was 80 and the “Plant response rating, Horseweed” value (horseweed; Postemergence, 125 g ai/ha) was 60. For the same compound, the “Oat, Wild plant response rating” value (oat, wild [14]; [24]) was 90, the “Plant response rating, Oat, Wild” value (oat, wild [14]; [25]) was 60 and the “Soybean plant response rating” value (soybean [15]; [24]) was 100. For the same compound, the “Plant response rating, Soybean” value (soybean [15]; [25]) was 100, the “Plant response rating, Barnyardgrass” value (barnyardgrass [16]; 500 g ai/ha, postemergence) was 100 and the “Plant response rating, Barnyardgrass” value (barnyardgrass [16]; Postemergence, 125 g ai/ha) was 50. The “Plant response rating, Sedge, Umbrella (Flood)” value (sedge, umbrella) was 90, the “Ragweed plant response rating” value (ragweed [17]; [24]) was 60 and the “Plant response rating, Ragweed” value (ragweed [17]; [25]) was 10. For the same compound, the “Plant response rating, Wheat” value (wheat [18]; 500 g ai/ha, postemergence) was 80, the “Plant response rating, Wheat” value (wheat [18]; Postemergence, 125 g ai/ha) was 20 and the “Plant response rating, Ducksalad (Flood)” value (ducksalad) was 45. For the same compound, the “Plant response rating, Oat, Wild” value (oat, wild [19]; 500 g ai/ha, postemergence) was 90, the “Plant response rating, Oat, Wild” value (oat, wild [19]; Postemergence, 125 g ai/ha) was 30 and the “Barnyardgrass plant response rating” value (barnyardgrass [20]; [24]) was 100. The “Plant response rating, Barnyardgrass” value (barnyardgrass [20]; [25]) was 80, the “Plant response rating, Foxtail, Green” value (green foxtail [21]; 500 g ai/ha, postemergence) was 90 and the “Plant response rating, Foxtail, Green” value (green foxtail [21]; Postemergence, 125 g ai/ha) was 30. For the same compound, the “Plant response rating, Ryegrass, Italian” value (ryegrass, Italian [22]; 500 g ai/ha, postemergence) was 100, the “Plant response rating, Ryegrass, Italian” value (ryegrass, Italian [22]; Postemergence, 125 g ai/ha) was 50 and the “Foxtail, Green plant response rating” value (green foxtail [23]; [24]) was 100. For the same compound, the “Plant response rating, Foxtail, Green” value (green foxtail [23]; [25]) was 100.
